Our source for the Activity and inhibition values is ChEMBL document CHEMBL4304811, “Development of a Water-Soluble Indolylmaleimide Derivative IM-93 Showing Dual Inhibition of Ferroptosis and NETosis” (ACS Med Chem Lett, 2019).

The subject of test [1] is Tyrosine-protein kinase ABL1 (Homo sapiens), P00519 [F317L]. Nature of the test: Binding affinity to human non-phosphorylated ABL1 F317L mutant (S229 to K512 residues) expressed in mammalian expression system assessed as residual binding level at 10 uM by Kinomescan method relative to control.
Test [2] relates to Tyrosine-protein kinase ABL1 (Homo sapiens), P00519 [H396P]. The test can be described thus: Binding affinity to human phosphorylated ABL1 H396P mutant (S229 to K512 residues) expressed in mammalian expression system assessed as residual binding level at 10 uM by Kinomescan method relative to control.
Test [3] addresses Tyrosine-protein kinase ABL1 (Homo sapiens) (UniProt P00519). Nature of the test: Binding affinity to wild-type human phosphorylated ABL1 (S229 to K512 residues) expressed in mammalian expression system assessed as residual binding level at 10 uM by Kinomescan method relative to control.
The target of test [4] is Calcium/calmodulin-dependent protein kinase type II subunit alpha (Homo sapiens) (UniProt Q9UQM7). The test can be described thus: Binding affinity to wild-type human partial length CAMK2A (M1 to K328 residues) expressed in bacterial expression system assessed as residual binding level at 10 uM by Kinomescan method relative to control.
Sequence of Calcium/calmodulin-dependent protein kinase type II subunit alpha (Homo sapiens) (Q9UQM7 whole entry, the tested form may be a part, canonical isoform): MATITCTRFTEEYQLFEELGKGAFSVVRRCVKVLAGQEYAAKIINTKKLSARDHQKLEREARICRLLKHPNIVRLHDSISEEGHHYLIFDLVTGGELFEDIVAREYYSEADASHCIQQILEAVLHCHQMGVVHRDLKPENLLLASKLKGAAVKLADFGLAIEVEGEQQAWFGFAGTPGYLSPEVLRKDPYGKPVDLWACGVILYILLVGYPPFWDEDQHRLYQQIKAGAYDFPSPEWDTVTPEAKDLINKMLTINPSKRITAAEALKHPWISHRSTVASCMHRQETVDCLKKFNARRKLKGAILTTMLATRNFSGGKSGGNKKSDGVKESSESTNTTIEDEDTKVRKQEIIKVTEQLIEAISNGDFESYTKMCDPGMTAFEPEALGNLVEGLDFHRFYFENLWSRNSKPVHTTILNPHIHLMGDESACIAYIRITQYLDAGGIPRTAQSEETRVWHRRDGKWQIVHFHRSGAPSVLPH
Test [5] deals with Casein kinase I isoform epsilon (Homo sapiens) (UniProt P49674). Nature of the test: Binding affinity to wild-type human full length CSNK1E (M1 to K416 residues) expressed in bacterial expression system assessed as residual binding level at 10 uM by Kinomescan method relative to control.
Sequence of Casein kinase I isoform epsilon (Homo sapiens) (P49674 whole entry, looked up, the tested form may be a part, canonical isoform): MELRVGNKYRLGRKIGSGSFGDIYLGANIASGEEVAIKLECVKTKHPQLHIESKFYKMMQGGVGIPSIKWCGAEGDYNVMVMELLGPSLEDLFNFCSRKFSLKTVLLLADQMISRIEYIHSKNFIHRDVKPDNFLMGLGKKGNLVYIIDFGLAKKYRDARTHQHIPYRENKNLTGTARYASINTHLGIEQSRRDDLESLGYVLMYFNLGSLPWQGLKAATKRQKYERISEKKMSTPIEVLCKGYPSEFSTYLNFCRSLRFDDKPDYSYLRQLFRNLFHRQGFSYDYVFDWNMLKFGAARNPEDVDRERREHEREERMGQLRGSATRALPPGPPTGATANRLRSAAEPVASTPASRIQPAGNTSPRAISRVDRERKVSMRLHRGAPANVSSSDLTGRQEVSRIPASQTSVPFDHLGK
Test [6] addresses Discoidin domain-containing receptor 2 (Homo sapiens) (UniProt Q16832). Nature of the test: Binding affinity to wild-type human partial length DDR2 (V555 to E855 residues) expressed in mammalian expression system assessed as residual binding level at 10 uM by Kinomescan method relative to control.
Test [7] has as its target Myotonin-protein kinase (Homo sapiens) (UniProt Q09013). The test can be described thus: Binding affinity to wild-type human partial length DMPK (V47 to V415 residues) expressed in bacterial expression system assessed as residual binding level at 10 uM by Kinomescan method relative to control.
In test [8] the target is Ephrin type-A receptor 5 (Homo sapiens) (UniProt P54756). Nature of the test: Binding affinity to wild-type human partial length EPHA5 (T627 to V930 residues) expressed in bacterial expression system assessed as residual binding level at 10 uM by Kinomescan method relative to control.
Sequence of Ephrin type-A receptor 5 (Homo sapiens) (P54756 whole entry, the tested form may be a part): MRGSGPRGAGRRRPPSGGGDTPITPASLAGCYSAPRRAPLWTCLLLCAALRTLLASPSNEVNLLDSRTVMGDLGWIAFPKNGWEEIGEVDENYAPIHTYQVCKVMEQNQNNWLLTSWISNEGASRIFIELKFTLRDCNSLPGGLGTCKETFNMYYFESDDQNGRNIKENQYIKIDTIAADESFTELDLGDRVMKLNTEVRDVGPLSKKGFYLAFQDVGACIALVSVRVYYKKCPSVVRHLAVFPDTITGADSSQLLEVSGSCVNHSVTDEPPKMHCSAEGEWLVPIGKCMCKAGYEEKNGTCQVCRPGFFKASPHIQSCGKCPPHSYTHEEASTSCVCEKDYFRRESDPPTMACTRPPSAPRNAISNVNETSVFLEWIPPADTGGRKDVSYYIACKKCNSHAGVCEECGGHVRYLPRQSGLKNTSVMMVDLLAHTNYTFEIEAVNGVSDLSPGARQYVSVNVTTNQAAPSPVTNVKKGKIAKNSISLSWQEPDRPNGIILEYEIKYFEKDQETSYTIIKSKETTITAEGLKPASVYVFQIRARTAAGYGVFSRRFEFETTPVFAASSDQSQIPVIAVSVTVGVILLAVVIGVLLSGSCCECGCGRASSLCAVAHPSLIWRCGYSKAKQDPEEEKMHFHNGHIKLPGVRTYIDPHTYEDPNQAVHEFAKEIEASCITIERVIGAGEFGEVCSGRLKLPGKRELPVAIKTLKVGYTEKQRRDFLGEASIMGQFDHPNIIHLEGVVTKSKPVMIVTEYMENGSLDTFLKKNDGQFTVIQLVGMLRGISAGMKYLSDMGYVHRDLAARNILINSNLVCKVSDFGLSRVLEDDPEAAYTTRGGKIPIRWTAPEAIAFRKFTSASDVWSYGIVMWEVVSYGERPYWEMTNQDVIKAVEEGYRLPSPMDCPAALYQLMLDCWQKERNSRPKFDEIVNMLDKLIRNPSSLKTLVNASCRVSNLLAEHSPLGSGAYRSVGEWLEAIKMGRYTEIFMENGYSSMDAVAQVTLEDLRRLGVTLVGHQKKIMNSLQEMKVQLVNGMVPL
The target in test [9] is Ephrin type-A receptor 6 (Homo sapiens) (UniProt Q9UF33). The test can be described thus: Binding affinity to wild-type human partial length EPHA6 (Y700 to E1046 residues) expressed in bacterial expression system assessed as residual binding level at 10 uM by Kinomescan method relative to control.
Sequence of Ephrin type-A receptor 6 (Homo sapiens) (Q9UF33 whole entry, the tested form may be a part): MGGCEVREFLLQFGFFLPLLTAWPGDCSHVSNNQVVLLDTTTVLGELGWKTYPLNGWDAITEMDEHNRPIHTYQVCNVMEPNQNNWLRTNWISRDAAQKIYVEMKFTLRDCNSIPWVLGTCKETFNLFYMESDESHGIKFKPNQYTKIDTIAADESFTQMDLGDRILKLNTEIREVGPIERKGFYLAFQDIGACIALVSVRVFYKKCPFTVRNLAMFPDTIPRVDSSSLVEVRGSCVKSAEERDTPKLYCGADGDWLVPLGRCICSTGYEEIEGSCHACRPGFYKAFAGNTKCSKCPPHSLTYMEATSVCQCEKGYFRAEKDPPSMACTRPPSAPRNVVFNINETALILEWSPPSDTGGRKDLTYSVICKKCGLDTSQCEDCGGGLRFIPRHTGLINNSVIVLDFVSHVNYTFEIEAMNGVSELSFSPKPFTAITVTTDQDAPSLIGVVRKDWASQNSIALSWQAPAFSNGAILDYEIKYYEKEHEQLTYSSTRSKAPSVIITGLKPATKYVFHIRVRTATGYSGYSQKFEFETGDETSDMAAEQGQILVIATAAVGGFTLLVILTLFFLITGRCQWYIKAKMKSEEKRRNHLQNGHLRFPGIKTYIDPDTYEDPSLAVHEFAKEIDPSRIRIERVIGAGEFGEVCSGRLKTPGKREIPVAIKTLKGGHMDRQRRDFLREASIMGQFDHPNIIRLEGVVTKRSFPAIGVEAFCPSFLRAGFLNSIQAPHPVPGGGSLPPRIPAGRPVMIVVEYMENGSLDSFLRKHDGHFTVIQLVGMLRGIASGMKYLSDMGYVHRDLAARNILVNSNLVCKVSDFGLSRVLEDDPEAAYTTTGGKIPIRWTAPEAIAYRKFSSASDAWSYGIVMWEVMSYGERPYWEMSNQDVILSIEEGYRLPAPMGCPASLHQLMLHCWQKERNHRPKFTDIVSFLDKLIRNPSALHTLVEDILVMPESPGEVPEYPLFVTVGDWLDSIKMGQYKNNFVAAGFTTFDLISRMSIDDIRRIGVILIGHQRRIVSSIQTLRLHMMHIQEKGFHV
For test [10], the target named is Ephrin type-B receptor 3 (Homo sapiens) (UniProt P54753). The test can be described thus: Binding affinity to wild-type human partial length EPHB3 (Q599 to T928 residues) expressed in bacterial expression system assessed as residual binding level at 10 uM by Kinomescan method relative to control.
Test [11] concerns eIF-2-alpha kinase GCN2 (Homo sapiens), Q9P2K8 [S808G]. The test can be described thus: Binding affinity to wild-type human partial length GCN2 kinase domain 2 (R585 to T1018 residues) S808G mutant expressed in bacterial expression system assessed as residual binding level at 10 uM by Kinomescan method relative to control.
The target of test [12] is Mitogen-activated protein kinase kinase kinase 2 (Homo sapiens) (UniProt Q9Y2U5). The test can be described thus: Binding affinity to wild-type human partial length MAP3K2 (S315 to H619 residues) expressed in mammalian expression system assessed as residual binding level at 10 uM by Kinomescan method relative to control.
Test [13] concerns the target Dual specificity mitogen-activated protein kinase kinase 1 (Homo sapiens) (UniProt Q02750). Nature of the test: Binding affinity to wild-type human full length MEK1 (M1 to V393 residues) expressed in mammalian expression system assessed as residual binding level at 10 uM by Kinomescan method relative to control.
The target in test [14] is Dual specificity mitogen-activated protein kinase kinase 2 (Homo sapiens) (UniProt P36507). The test can be described thus: Binding affinity to wild-type human full length MEK2 (M1 to V400 residues) expressed in mammalian expression system assessed as residual binding level at 10 uM by Kinomescan method relative to control.
Test [15] has as its target Serine/threonine-protein kinase NLK (Homo sapiens) (UniProt Q9UBE8). Nature of the test: Binding affinity to wild-type human full length NLK (M13 to E527 residues) expressed in bacterial expression system assessed as residual binding level at 10 uM by Kinomescan method relative to control.
Test [16] addresses Serine/threonine-protein kinase PAK 2 (Homo sapiens) (UniProt Q13177). Nature of the test: Binding affinity to wild-type human partial length PAK2 (P151 to R525 residues) expressed in bacterial expression system assessed as residual binding level at 10 uM by Kinomescan method relative to control.
For test [17], the target named is Calcium-dependent protein kinase 1 (Plasmodium falciparum) (UniProt P62344). Nature of the test: Binding affinity to wild-type Plasmodium falciparum full length CDPK1 (M1 to S524 residues) expressed in mammalian expression system assessed as residual binding level at 10 uM by Kinomescan method relative to control.
Test [18] concerns the target Serine/threonine-protein kinase pim-2 (Homo sapiens) (UniProt Q9P1W9). The test can be described thus: Binding affinity to wild-type human partial length PIM2 (M1 to E291 residues) expressed in bacterial expression system assessed as residual binding level at 10 uM by Kinomescan method relative to control.
For test [19], the target named is cAMP-dependent protein kinase catalytic subunit alpha (Homo sapiens) (UniProt P17612). The test can be described thus: Binding affinity to wild-type human partial length PKAC-alpha (G10 to F351 residues) expressed in bacterial expression system assessed as residual binding level at 10 uM by Kinomescan method relative to control.
Test [20] concerns the target Interferon-induced, double-stranded RNA-activated protein kinase (Homo sapiens) (UniProt P19525). Nature of the test: Binding affinity to wild-type human partial length PRKR (F247 to C551 residues) expressed in bacterial expression system assessed as residual binding level at 10 uM by Kinomescan method relative to control.
In test [21] the target is Ribosomal protein S6 kinase alpha-4 (Homo sapiens) (UniProt O75676). The test can be described thus: Binding affinity to wild-type human partial length N-terminal RPS6KA4 kinase domain 1 expressed in bacterial expression system assessed as residual binding level at 10 uM by Kinomescan method relative to control.
Sequence of Ribosomal protein S6 kinase alpha-4 (Homo sapiens) (O75676 whole entry, looked up, the tested form may be a part): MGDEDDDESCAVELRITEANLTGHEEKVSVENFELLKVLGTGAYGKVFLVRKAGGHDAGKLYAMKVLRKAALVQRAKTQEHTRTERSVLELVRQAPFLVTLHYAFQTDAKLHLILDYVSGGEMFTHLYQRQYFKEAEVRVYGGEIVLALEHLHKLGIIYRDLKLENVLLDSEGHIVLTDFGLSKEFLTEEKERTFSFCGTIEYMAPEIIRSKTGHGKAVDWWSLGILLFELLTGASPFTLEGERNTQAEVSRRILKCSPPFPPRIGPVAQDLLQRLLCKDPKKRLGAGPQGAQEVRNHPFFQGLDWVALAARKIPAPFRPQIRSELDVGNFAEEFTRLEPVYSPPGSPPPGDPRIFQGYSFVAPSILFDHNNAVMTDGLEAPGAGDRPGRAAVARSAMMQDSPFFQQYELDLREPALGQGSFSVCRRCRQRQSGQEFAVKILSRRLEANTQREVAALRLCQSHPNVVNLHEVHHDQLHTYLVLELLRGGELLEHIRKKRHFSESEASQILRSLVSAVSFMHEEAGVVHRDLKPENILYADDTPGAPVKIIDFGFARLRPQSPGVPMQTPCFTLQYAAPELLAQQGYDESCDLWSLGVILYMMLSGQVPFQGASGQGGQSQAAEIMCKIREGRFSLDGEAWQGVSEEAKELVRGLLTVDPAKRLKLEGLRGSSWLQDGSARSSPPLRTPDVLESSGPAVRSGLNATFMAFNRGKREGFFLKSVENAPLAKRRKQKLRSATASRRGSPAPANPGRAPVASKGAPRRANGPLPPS
The target is the same in test [22]. The test can be described thus: Binding affinity to wild-type human partial length C-terminal RPS6KA4 kinase domain 2 (M375 to T705 residues) expressed in mammalian expression system assessed as residual binding level at 10 uM by Kinomescan method relative to control.
Test [23] concerns the target Ribosomal protein S6 kinase alpha-1 (Homo sapiens) (UniProt Q15418). Nature of the test: Binding affinity to wild-type human partial length N-terminal RSK1 Kinase domain 1 (M1 to E388 residues) expressed in bacterial expression system assessed as residual binding level at 10 uM by Kinomescan method relative to control.
In test [24] the test system is THP-1. The test can be described thus: Inhibition of Pseudomonas aeruginosa-induced pyroptosis in human THP1 cells at 10 uM preincubated for 1 hr followed by bacterial infection and measured after 2 hrs by INT dye based LDH assay. Format: functional, cell-based.

The source made the active and inactive calls. The rule behind the calls is not given here.

Sequence of Serine/threonine-protein kinase pim-2 (Homo sapiens) (Q9P1W9 whole entry, looked up, the tested form may be a part): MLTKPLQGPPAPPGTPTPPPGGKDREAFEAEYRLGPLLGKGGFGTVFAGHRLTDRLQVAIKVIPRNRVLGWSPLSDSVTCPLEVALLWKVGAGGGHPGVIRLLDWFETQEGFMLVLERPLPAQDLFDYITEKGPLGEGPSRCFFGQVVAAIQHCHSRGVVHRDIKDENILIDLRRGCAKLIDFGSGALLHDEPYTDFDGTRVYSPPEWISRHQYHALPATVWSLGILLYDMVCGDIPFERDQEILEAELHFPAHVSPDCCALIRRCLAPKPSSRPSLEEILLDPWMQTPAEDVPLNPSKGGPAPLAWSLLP
Sequence of Myotonin-protein kinase (Homo sapiens) (Q09013 whole entry, the tested form may be a part): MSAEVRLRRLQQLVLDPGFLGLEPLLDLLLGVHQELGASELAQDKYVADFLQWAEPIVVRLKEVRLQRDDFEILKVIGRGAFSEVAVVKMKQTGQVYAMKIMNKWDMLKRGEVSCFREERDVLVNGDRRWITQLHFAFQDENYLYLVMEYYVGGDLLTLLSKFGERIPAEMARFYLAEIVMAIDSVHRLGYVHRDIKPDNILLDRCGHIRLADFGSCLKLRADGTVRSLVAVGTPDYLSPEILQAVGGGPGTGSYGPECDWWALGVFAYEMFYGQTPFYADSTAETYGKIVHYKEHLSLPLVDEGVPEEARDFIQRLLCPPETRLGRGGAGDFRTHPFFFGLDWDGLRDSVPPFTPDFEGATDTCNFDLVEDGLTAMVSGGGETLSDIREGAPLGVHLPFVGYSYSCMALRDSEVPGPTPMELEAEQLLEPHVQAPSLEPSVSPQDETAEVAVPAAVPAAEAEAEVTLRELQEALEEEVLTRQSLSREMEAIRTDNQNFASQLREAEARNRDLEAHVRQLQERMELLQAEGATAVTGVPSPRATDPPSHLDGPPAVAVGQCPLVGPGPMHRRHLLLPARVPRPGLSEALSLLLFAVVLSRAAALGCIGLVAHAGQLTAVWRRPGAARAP

For `CC(C)N1C(=O)C(NCCCN(C)C)=C(c2cn(C)c3ccccc23)C1=O.Cl`, the Activity in test [1] was 84%; in test [2], 93%; in test [3], 92%; in test [4], 100%; in [5], 89%; in test [6] it was 100%. In addition, the Activity in test [7] came to 100%; in test [8], 96%; in test [9], 100%; in test [10], 99%; in [11], 100%; in test [12], 83%. The Activity in [13] turned out to be 84%; in test [14] it was 94%; in test [15], 94%; in test [16] it was 100%; in test [17] it was 81%; in test [18], 100%. Further, the Activity in [19] amounted to 84%; in test [20] it was 100%; in [21], 100%; in [22], 74%; in [23], 98%. Moreover, the inhibition result in test [24] is “inactive”.
